How the values were obtained:
Experiment in all cases: competitive isoTOP-ABPP
Assay type in all cases: binding
[1] = molecular target: T1, NUDT2 Bis(5-nucleosyl)-tetraphosphatase (Homo sapiens, UniProt P50583); set-up: key to isoTOP-ABPP reactivity ratio at lysine P50583_K89: R = MS1 peak area ratio, DMSO (heavy) / compound-treated (light); conditions: 50 uM, in vitro; for isoTOP-ABPP ratio (R) at liganded lysine P50583_K89: sol, 231
T1 construct: isoTOP-ABPP experiments performed in cell lysates (in vitro); endogenous in cells
Procedure: (§1) In vitro covalent fragment treatment for isoTOP-ABPP. All compounds were made up as solutions in DMSO (100×) and were used at a final concentration of 50 μM for activated esters and 100 μM for guanidinylating agents. For each profiling sample, 0.5 ml of lysate was treated with 5 μl of the 100× compound stock solution or 5 μl of DMSO. Samples were treated with activated esters for
(§2) STP-alkyne labeling and click chemistry. For concentration-dependent reactivity measurements by isoTOP-ABPP, 0.5 ml proteome aliquots were treated at ambient temperature with 1 mM STP-alkyne 1 (5 μl of 100 mM stock in DMSO) and 0.1 mM STP alkyne 1 (5 μl of 10 mM stock in DMSO), respectively. For competitive isoTOP-ABPP, after in vitro fragment treatment (detailed above), the samples were labeled for 1 h at ambient temperature with 0.1 mM STP-alkyne 1 (5 μl of 10 mM stock in DMSO). Samples were conjugated by copper-mediated azide-alkyne cycloaddition (CuAAC) to either the light (1 mM STP-alkyne or fragment treated) or heavy (0.1 mM STP-alkyne or DMSO treated) TEV tags (10 μl of 5 mM stocks in DMSO, final concentration=100 μM) using tris(2-carboxyethyl)phosphine hydrochloride
(§3) R value calculation and processing. The ratios of light and heavy MS1 peaks for each unique peptide were quantified with a CIMAGE software using default parameters (3 MS1 acquisitions per peak and signal to noise threshold set to 2.5). For reactivity measurements by isoTOP-ABPP, the R value was calculated from the ratio of MS1 peak areas, comparing the 1 mM STP alkyne sample (light TEV tag) with the 0.1 mM STP alkyne sample (heavy TEV tag). For competitive isoTOP-ABPP, the R value was calculated from the ratio of MS1 peak areas, comparing the DMSO treated sample (heavy TEV tag) with the compound treated sample (light TEV tag). […] Ratios for unique peptide entries are calculated for each experiment; overlapping peptides with the same modified lysine (for example, different charge states, MudPIT chromatographic steps or tryptic termini) are grouped together and the median ratio is reported as the final ratio (R). The peptide ratios reported by CIMAGE were further filtered to ensure the removal or correction of low-quality ratios in each individual data set. The quality filters applied were the following: removal of half tryptic peptides; for ratios with high standard deviations from the median (90% of the median or above) the lowest ratio was taken instead of the median; removal of peptides with R=20 and only a single MS2 event triggered during the elution of the parent ion; manual annotation of all the peptides with ratios of 20, removing any peptides with low quality elution profiles that remained after the previous curation steps (only done for competitive isoTOP-ABPP).
(§4) Cross-data processing for fragment screening. For compound treated samples, biological replicates of the same condition were averaged, if the standard deviation was below 60% of the mean; otherwise, for lysines with at least one R value <4 for a particular compound, the lowest value of the ratio set was taken. For lysines, where all R values for a particular compound were ≥4, the average was reported. For peptides containing several possible modified lysines, the lysine with the highest number of quantification events was used for analysis and the remaining, redundant peptides were reported as alternative modification sites. Peptides included in the aggregate dataset (those used for further bioinformatics and statistical analyses) were required to have been quantified in 2 experiments for competitive isoTOP-ABPP. Lysines were categorized as liganded, if they had at least one ratio R≥4 (hit fragments). For liganded lysines with R=20 for all liganding events, lysines were required to have been quantified with R=20 in two separate experiments and were further required to have been quantified with R<20 in one additional experiment.

[2] = molecular target: T2, HDHD3 Haloacid dehalogenase-like hydrolase domain-containing protein 3 (Homo sapiens, UniProt Q9BSH5); set-up: key to isoTOP-ABPP reactivity ratio at lysine Q9BSH5_K15: R = MS1 peak area ratio, DMSO (heavy) / compound-treated (light); conditions: 50 uM, in vitro; for isoTOP-ABPP ratio (R) at liganded lysine Q9BSH5_K15: sol, 231
T2 construct: isoTOP-ABPP experiments performed in cell lysates (in vitro); endogenous in cells; host or cells: soluble proteome of human cancer cell lines (MDA-MB-231; Ramos and Jurkat also prepared)
T2 sequence (Q9BSH5 1-251): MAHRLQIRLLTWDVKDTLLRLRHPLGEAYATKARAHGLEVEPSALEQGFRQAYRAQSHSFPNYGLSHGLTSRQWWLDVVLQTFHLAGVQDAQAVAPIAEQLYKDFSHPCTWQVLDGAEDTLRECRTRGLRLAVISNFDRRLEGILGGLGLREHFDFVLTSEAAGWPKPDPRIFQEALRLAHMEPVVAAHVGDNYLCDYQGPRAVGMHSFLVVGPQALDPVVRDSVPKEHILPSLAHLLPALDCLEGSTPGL
Procedure: as §1, §2, §3, §4

[3] = molecular target: T3, CPOX Coproporphyrinogen-III oxidase, mitochondrial (Homo sapiens, UniProt P36551); set-up: key to isoTOP-ABPP reactivity ratio at lysine P36551_K404: R = MS1 peak area ratio, DMSO (heavy) / compound-treated (light); conditions: 50 uM, in vitro; for isoTOP-ABPP ratio (R) at liganded lysine P36551_K404: sol, 231
T3 construct: isoTOP-ABPP experiments performed in cell lysates (in vitro); endogenous in cells; host or cells: soluble proteome of human cancer cell lines (MDA-MB-231; Ramos and Jurkat also prepared)
T3 sequence (P36551 111-454): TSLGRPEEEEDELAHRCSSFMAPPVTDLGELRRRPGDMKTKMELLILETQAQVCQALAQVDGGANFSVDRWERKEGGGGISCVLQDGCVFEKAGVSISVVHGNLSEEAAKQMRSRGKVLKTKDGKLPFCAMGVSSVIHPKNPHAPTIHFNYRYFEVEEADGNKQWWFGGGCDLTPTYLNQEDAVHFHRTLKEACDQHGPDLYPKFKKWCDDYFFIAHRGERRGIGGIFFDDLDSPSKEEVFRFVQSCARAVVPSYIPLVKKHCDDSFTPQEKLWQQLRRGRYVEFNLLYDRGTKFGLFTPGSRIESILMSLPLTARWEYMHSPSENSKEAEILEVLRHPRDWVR
Procedure: as §1, §2, §3, §4

[4] = molecular target: T4, ECH1 Delta(3,5)-Delta(2,4)-dienoyl-CoA isomerase, mitochondrial (Homo sapiens, UniProt Q13011); set-up: key to isoTOP-ABPP reactivity ratio at lysine Q13011_K112: R = MS1 peak area ratio, DMSO (heavy) / compound-treated (light); capped at 20; conditions: 50 uM, in vitro; for isoTOP-ABPP ratio (R) at liganded lysine Q13011_K112: sol, 231
T4 construct: isoTOP-ABPP experiments performed in cell lysates (in vitro); endogenous in cells; host or cells: soluble proteome of human cancer cell lines (MDA-MB-231, Ramos, Jurkat)
T4 sequence (Q13011 34-328): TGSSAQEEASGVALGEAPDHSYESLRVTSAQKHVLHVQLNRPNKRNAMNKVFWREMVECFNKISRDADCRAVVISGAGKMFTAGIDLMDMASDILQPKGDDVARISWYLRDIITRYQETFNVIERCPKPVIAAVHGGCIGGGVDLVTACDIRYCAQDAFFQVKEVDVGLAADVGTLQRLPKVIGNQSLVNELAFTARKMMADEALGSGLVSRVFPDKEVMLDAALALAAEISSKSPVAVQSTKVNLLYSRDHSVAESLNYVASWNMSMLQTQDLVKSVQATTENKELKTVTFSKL
Procedure: as §1, §2, §3, §4

T1 sequence (P50583 whole entry): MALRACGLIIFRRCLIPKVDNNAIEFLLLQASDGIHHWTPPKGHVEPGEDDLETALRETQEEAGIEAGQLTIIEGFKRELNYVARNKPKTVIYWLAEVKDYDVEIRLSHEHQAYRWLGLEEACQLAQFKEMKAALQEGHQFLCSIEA

SMILES | isoTOP-ABPP reactivity ratio at lysine P50583_K89 ([1]; 231 sol) | isoTOP-ABPP reactivity ratio at lysine Q9BSH5_K15 ([2]; 231 sol) | isoTOP-ABPP reactivity ratio at lysine P36551_K404 ([3]; 231 sol) | isoTOP-ABPP reactivity ratio at lysine Q13011_K112 ([4]; 231 sol) | isoTOP-ABPP ratio (R) at liganded lysine P50583_K89 [1] | isoTOP-ABPP ratio (R) at liganded lysine Q9BSH5_K15 [2] | isoTOP-ABPP ratio (R) at liganded lysine P36551_K404 [3] | isoTOP-ABPP ratio (R) at liganded lysine Q13011_K112 [4]
COc1cc(CCC(=O)Oc2ccc([N+](=O)[O-])cc2[N+](=O)[O-])cc(OC)c1OC [fragment 33, 2,4-Dinitrophenyl 3-(3,4,5-trimethoxyphenyl)propanoate] | 1.9 | 1.5 | 1.0 | 0.9 | – | – | – | –
O=C(Oc1ccc([N+](=O)[O-])cc1[N+](=O)[O-])C1CCN(C(=O)OCc2ccccc2)CC1 [fragment 34, 1-Benzyl 4-(2,4-dinitrophenyl) piperidine-1,4-dicarboxylate] | – | – | – | – | 1.0 | 4.1 | 1.1 | 1.1
O=C(Oc1ccc([N+](=O)[O-])cc1[N+](=O)[O-])c1ccc2ccccc2n1 [fragment 35, 2,4-Dinitrophenyl quinoline-2-carboxylate] | – | – | – | – | 1.6 | 7.0 | 1.2 | 1.0
O=C(CCc1coc2cc(F)ccc2c1=O)Oc1ccc([N+](=O)[O-])cc1[N+](=O)[O-] [fragment 36, 2,4-Dinitrophenyl 3-(7-fluoro-4-oxo-4H-chromen-3-yl)propanoate] | – | – | – | – | 0.9 | 10.4 | 1.0 | 1.3
O=C(Oc1ccc([N+](=O)[O-])cc1[N+](=O)[O-])c1ccc(-c2ccccc2)cc1 [fragment 37, 2,4-Dinitrophenyl [1,1′-biphenyl]-4-carboxylate] | – | – | – | – | 1.4 | 4.3 | 1.0 | 0.9
O=C(CC12CC3CC(CC(C3)C1)C2)Oc1ccc([N+](=O)[O-])cc1[N+](=O)[O-] [fragment 38, 2,4-Dinitrophenyl 2-(adamantan-1-yl)acetate] | – | – | – | – | 0.9 | 1.2 | 1.0 | 0.9
O=C(Oc1ccc([N+](=O)[O-])cc1[N+](=O)[O-])c1ccc(Oc2ccccc2)cc1 [fragment 39, 2,4-Dinitrophenyl 4-phenoxybenzoate] | – | – | – | – | 2.4 | 1.3 | 1.0 | 1.1
O=C(Oc1ccc([N+](=O)[O-])cc1[N+](=O)[O-])c1ccccc1Nc1cccc(C(F)(F)F)c1 [fragment 40, 2,4-Dinitrophenyl 2-((3-(trifluoromethyl)phenyl)amino)benzoate] | – | – | – | – | 0.9 | 0.9 | 1.8 | 1.0
CC(C)(C)OC(=O)NCCCC(=O)Oc1ccc([N+](=O)[O-])cc1[N+](=O)[O-] [fragment 41, 2,4-Dinitrophenyl 4-((tert-butoxycarbonyl)amino)butanoate] | – | – | – | – | 1.0 | 2.8 | 1.0 | 1.0
O=C(Oc1ccc([N+](=O)[O-])cc1[N+](=O)[O-])C(c1ccccc1)(c1ccccc1)c1ccccc1 [fragment 42, 2,4-Dinitrophenyl 2,2,2-triphenylacetate] | – | – | – | – | 1.0 | 0.9 | 1.0 | 1.0
CC(=O)Oc1ccc([N+](=O)[O-])cc1[N+](=O)[O-] [fragment 43, 2,4-Dinitrophenyl acetate] | – | – | – | – | 1.1 | 3.1 | 1.1 | 1.2
